# Results from patent US20070098826A1, “Use of pinitol or chiroinositol for protecting the liver” (AMICOGEN, INC., priority 2003, published 2007).
# Tests used:
# [1] = system: glutathione content of liver; experiment: Content of glutathione in liver of streptozotocin diabetic rats; assay type: in vivo, Sprague-Dawley rats; settings: for Glutathione content as compared to the normal group / Glutathione content Relative value: 10 mg/kg; for Glutathione content (μ mole/g): 10 mg/kg oral everyday for 4 days, liver; for Glutathione content Relative value: normal group = 100
# Protocol: In order to induce diabetes in rats, streptozotocin (Sigma Chemical Co., USA) dissolved in 0.01M citrate buffer solution (pH 4.5) was injected into the abdominal cavity of 8 week-old Sprague-Dawley rats in an amount of 45 mg/kg of rat body weight. […] The diabetic rats were divided into 3 groups, each of 12-15 rats, and pinitol or chiroinositol dissolved in 10 ml of water was orally administered to the rats of two groups (experimental groups 1 and 2) in an amount of 10 mg/kg of rat body weight everyday for 4 days. Rats of the normal group and control group (diabetic group) were each treated with 10 ml of distilled water. After fasting during 18 hours, the rats were anesthetized with ethyl ether, sacrificed, the liver was taken and washed with cold physiological saline. The glutathione content of the homogenized liver solution was measured according to the method of Ellman (Arch. Biochem. Biophy., 70-77 (1959)) and the result is shown in Table IV.
# [2] = rats, oral, 5,000 mg/kg, day 14
# Protocol: 6 week-old, specific pathogen-free Sprague-Dawley female rats (15 heads), each weighing about 130 to 147 g, and male rats (15 heads), each weighing about 110 to 123 g, were bred under the condition of 23±3° C., 55±15% relative humidity and 12 L/12 D photoperiod. Fodder (Harlan, U.S.A.) and water were sterilized and fed to the rats. The rats were acclimated for 1 week before the administration of pinitol.
# Pinitol was dissolved in physiological saline and the solution was orally administered to each rat in an amount of 5,000 mg/kg of rat body weight. […] The weight changes of the rats were recorded at day 1, 3, 7 and 14 to examine the effect of pinitol. Further, on day 14, the rats were sacrificed and the internal organs were visually examined.
# SOD activity in liver = experiment: Determination of SOD activity in liver of carbon tetrachloride treated rats; assay type: in vivo, Sprague-Dawley rats; settings: for SOD activity (U/g Liver): CCl4 i.p., liver 24 hours later; for SOD activity Relative Value (%): control group = 100
# Protocol: The rats were divided into 7 groups and pinitol dissolved in 10 ml of water was orally administered to the rats of the experimental groups in an amount of 200-1000 mg/kg of rat body weight everyday for 4 days. The comparative group rats were treated with Silymarin (Sigma Chemical Co.) in an amount of 200 mg/kg, the normal and control groups were each treated with 10 ml of distilled water. On day 4, a mixture of carbon tetrachloride and soybean oil (1:1 (v/v)) was injected intraperitoneally into the rats except the rats of the normal group in an amount of 0.5 ml/kg, 90 minutes after the administration of pinitol. 24 hours thereafter, SOD activity of the liver taken out from each rat was measured according to the method of Neoot et al., (Methods Enzymol., 186: 209-219 (1993)) and tested by student t-test.
# [3] = system: serum GOT, GPT and γ-GTP levels; experiment: Protective activity for liver in adults with elevated serum GOT or γ-GTP (serum GOT, GPT, γ-GTP); assay type: in vivo, human; settings: oral 600 mg daily for 2 months
# Protocol: Pinitol was orally administered to adults (the average age: 51.8 years, man 7 and female 8) showing serum GOT or γ-GPT level higher than 50 IU/L at a daily dose of 600 mg for 2 months. Serum GOT, GPT and γ-GTP levels were determined before and after the administration.
# [4] = system: Liver Damaged by Carbon Tetrachloride; experiment: Protective activity for the liver damaged by carbon tetrachloride (blood GOT and GPT); assay type: in vivo, Sprague-Dawley rats; settings: CCl4 rats; for GOT / GPT: blood on day 8; for GOT Inhibition (%) / GPT Inhibition (%): day 8
# Protocol: The rats were divided into 8 groups and carbon tetrachloride was injected subcutaneously into the rats except the rats of the normal group in an amount of 0.5 ml/kg at 1st and 5th day. On day 2, pinitol or chiroinositol dissolved in 10 ml of water was orally administered to the rats of the experimental groups in an amount of 5-20 mg/kg of rat body weight. The normal and control groups were treated with 10 ml of distilled water instead of pinitol. On day 8, GOT and GPT concentrations in the blood sample taken from the orbital vein of each rat was measured by using blood analyzer (Vitros DT-60, Johnson & Johnson) and the result is shown in Table II. The degree of inhibition (%) was then calculated in accordance with the following equation: [formula]
Structure (SMILES),Glutathione content as compared to the normal group [1] [%],Glutathione content (μ mole/g) [1] [μ mole/g],Glutathione content Relative value [1],GOT ([4]; 5 mg/kg oral) [IU/L],GPT ([4]; 5 mg/kg oral) [IU/L],GOT Inhibition (%) ([4]; 5 mg/kg oral),GPT Inhibition (%) ([4]; 5 mg/kg oral),GOT ([4]; 10 mg/kg oral) [IU/L],GPT ([4]; 10 mg/kg oral) [IU/L],GOT Inhibition (%) ([4]; 10 mg/kg oral),GPT Inhibition (%) ([4]; 10 mg/kg oral),GOT ([4]; 20 mg/kg oral) [IU/L],GPT ([4]; 20 mg/kg oral) [IU/L],GOT Inhibition (%) ([4]; 20 mg/kg oral),GPT Inhibition (%) ([4]; 20 mg/kg oral),also measured
"CO[C@H]1[C@H](O)[C@@H](O)[C@@H](O)[C@H](O)[C@@H]1O [Pinitol, pinitol]",96,16.38 ± 2.43,95.8,298 ± 28,134 ± 7,49.7,54.6,188 ± 22,92 ± 5,73.4,72.9,192 ± 17,75 ± 4,72.6,80.3,"Autopsy, pathological abnormality of internal organs [2]: did not develop any pathological abnormality; SOD activity lower than that of the control group by (SOD activity in liver; 200 mg/kg): 7%; SOD activity (U/g Liver) (SOD activity in liver; 200 mg/kg oral everyday for 4 days): 217 ± 74 U/g Liver; SOD activity Relative Value (%) (SOD activity in liver; 200 mg/kg): 93%; SOD activity higher than that of the control group by (SOD activity in liver; 300 mg/kg): 24%; SOD activity (U/g Liver) (SOD activity in liver; 300 mg/kg oral everyday for 4 days): 289 ± 45 U/g Liver; SOD activity Relative Value (%) (SOD activity in liver; 300 mg/kg): 124%; Effect on SOD activity in the liver (SOD activity in liver; 300 mg/kg, p<0.05): raises SOD activity in the liver; SOD activity higher than that of the control group by (SOD activity in liver; 500 mg/kg): 44%; SOD activity (U/g Liver) (SOD activity in liver; 500 mg/kg oral everyday for 4 days): 335 ± 52 U/g Liver; SOD activity Relative Value (%) (SOD activity in liver; 500 mg/kg): 144%; SOD activity higher than that of the control group by (SOD activity in liver; 1000 mg/kg): 35%; SOD activity (U/g Liver) (SOD activity in liver; 1000 mg/kg oral everyday for 4 days): 315 ± 38 U/g Liver; SOD activity Relative Value (%) (SOD activity in liver; 1000 mg/kg): 135%; Serum GOT After administration [3]: 31.4 ± 3.0 IU/L; Serum GPT After administration [3]: 43.2 ± 8.1 IU/L; Serum γ-GTP After administration [3]: 82.6 ± 17.5 IU/L; Serum GOT Degree of decrease (%) ([3]; vs before administration): 45.3%; Serum GPT Degree of decrease (%) ([3]; vs before administration): 51.8%; Serum γ-GTP Degree of decrease (%) ([3]; vs before administration): 41.1%"
OC1C(O)C(O)C(O)C(O)C1O (centres unmarked) [chiroinositol],85,14.52 ± 0.57,85.0,321 ± 35,156 ± 12,44.0,45.0,205 ± 28,80 ± 9,69.4,78.2,174 ± 26,88 ± 7,76.1,74.7,
